BindingDB's records for doi:10.7270/Q26M3571 (Nmmlsc, 2007)

Molecular target: T1, N-formyl peptide receptor 2 (Homo sapiens, UniProt P25090)
T1 sequence (P25090 whole entry): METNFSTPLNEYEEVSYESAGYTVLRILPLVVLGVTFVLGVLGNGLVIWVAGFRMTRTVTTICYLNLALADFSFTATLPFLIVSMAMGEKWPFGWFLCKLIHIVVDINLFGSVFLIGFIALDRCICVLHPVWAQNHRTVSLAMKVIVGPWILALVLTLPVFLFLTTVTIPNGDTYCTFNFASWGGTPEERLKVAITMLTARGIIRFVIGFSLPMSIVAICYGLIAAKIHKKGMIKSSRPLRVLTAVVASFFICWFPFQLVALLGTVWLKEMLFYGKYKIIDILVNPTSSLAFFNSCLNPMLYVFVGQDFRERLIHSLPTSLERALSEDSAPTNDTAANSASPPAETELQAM
Assay: FPRL1 fluorescent ligand binding inhibitors, dose response, selectivity assay for FPR1 ligand SAR project, cell-based, flow cytometry, Ki from IC50 (AID 723)

Structure (SMILES)	Ki
CC(=O)C1C(=O)C(=O)N(CCc2c(C)[nH]c3ccccc23)C1c1cccc(F)c1 (stereo unspecified)	> 40.3 µM
COc1ccc(C(=O)C2C(=O)C(=O)N(CCc3c[nH]c4ccccc34)C2c2ccc(C(C)C)cc2)cc1 (stereo unspecified)	> 40.3 µM
COc1ccc(C2C(C(=O)c3cccs3)C(=O)C(=O)N2CCCn2ccnc2)cc1 (stereo unspecified) [1-(3-imidazol-1-ylpropyl)-2-(4-methoxyphenyl)-4-oxidanyl-3-thiophen-2-ylcarbonyl-2H-pyrrol-5-one]	> 40.3 µM
COc1cc(C2C(C(C)=O)C(=O)C(=O)N2c2ccc(Br)cc2)ccc1O (stereo unspecified) [1-(4-bromophenyl)-3-ethanoyl-2-(3-methoxy-4-oxidanyl-phenyl)-4-oxidanyl-2H-pyrrol-5-one]	> 40.3 µM
COc1ccc(C2C(C(=O)c3cccs3)C(=O)C(=O)N2CCN2CCOCC2)c(OC)c1 (stereo unspecified) [2-(2,4-dimethoxyphenyl)-1-(2-morpholin-4-ylethyl)-4-oxidanyl-3-thiophen-2-ylcarbonyl-2H-pyrrol-5-one]	> 40.3 µM
COc1ccc(C2C(C(=O)c3ccco3)C(=O)C(=O)N2CCCN2CCOCC2)cc1OC (stereo unspecified) [2-(3,4-dimethoxyphenyl)-3-(furan-2-carbonyl)-4-hydroxy-1-(3-morpholin-4-ylpropyl)-2H-pyrrol-5-one]	> 40.3 µM
O=C1C(=O)N(CCc2ccccc2)C(c2ccc(Cl)cc2)C1C(=O)c1cccs1 (stereo unspecified) [2-(4-chlorophenyl)-4-hydroxy-1-(2-phenylethyl)-3-(thiophene-2-carbonyl)-2H-pyrrol-5-one]	> 40.3 µM
COc1cc(C2C(C(=O)c3cc4ccccc4o3)C(=O)C(=O)N2CCN(C)C)ccc1O (stereo unspecified) [3-(1-benzofuran-2-carbonyl)-1-[2-(dimethylamino)ethyl]-4-hydroxy-2-(4-hydroxy-3-methoxyphenyl)-2H-pyrrol-5-one]	> 40.3 µM
COc1ccc(C2C(C(=O)c3cc4ccccc4o3)C(=O)C(=O)N2CCN(C)C)cc1OC (stereo unspecified) [3-(1-benzofuran-2-carbonyl)-2-(3,4-dimethoxyphenyl)-1-[2-(dimethylamino)ethyl]-4-hydroxy-2H-pyrrol-5-one]	> 40.3 µM
O=C1C(=O)N(CCCn2ccnc2)C(c2cccnc2)C1C(=O)c1cc2ccccc2o1 (stereo unspecified) [3-(1-benzofuran-2-carbonyl)-4-hydroxy-1-(3-imidazol-1-ylpropyl)-2-pyridin-3-yl-2H-pyrrol-5-one]	> 40.3 µM
O=C1C(=O)N(CCCN2CCOCC2)C(c2cccnc2)C1C(=O)c1cc2ccccc2o1 (stereo unspecified) [3-(1-benzofuran-2-carbonyl)-4-hydroxy-1-(3-morpholin-4-ylpropyl)-2-pyridin-3-yl-2H-pyrrol-5-one]	> 40.3 µM
O=C1C(=O)N(CCCn2ccnc2)C(c2cccnc2)C1C(=O)c1ccco1 (stereo unspecified) [3-(furan-2-carbonyl)-4-hydroxy-1-(3-imidazol-1-ylpropyl)-2-pyridin-3-yl-2H-pyrrol-5-one]	> 40.3 µM
COc1ccc(OC)c(C2C(C(=O)c3ccc(C)cc3)C(=O)C(=O)N2CCC(=O)O)c1 (stereo unspecified) [3-[(3E)-2-(2,5-dimethoxyphenyl)-3-[(4-methylphenyl)-oxidanyl-methylidene]-4,5-bis(oxidanylidene)pyrrolidin-1-yl]propanoic acid]	> 40.3 µM
O=C(O)CCCN1C(=O)C(=O)C(C(=O)c2ccccc2)C1/C=C/c1ccccc1 (stereo unspecified) [4-[(4E)-2,3-bis(oxidanylidene)-4-[oxidanyl(phenyl)methylidene]-5-[(E)-2-phenylethenyl]pyrrolidin-1-yl]butanoic acid]	> 40.3 µM
COc1ccc(C2C(C(=O)c3ccco3)C(=O)C(=O)N2CCN2CCOCC2)c(OC)c1 (stereo unspecified) [5-(2,4-dimethoxyphenyl)-4-(furan-2-carbonyl)-3-hydroxy-1-(2-morpholinoethyl)-1H-pyrrol-2(5H)-one]	> 40.3 µM
COCCN1C(=O)C(=O)C(C(=O)c2ccccc2)C1c1ccc(C(C)C)cc1 (stereo unspecified) [(4E)-1-(2-methoxyethyl)-4-[oxidanyl(phenyl)methylidene]-5-(4-propan-2-ylphenyl)pyrrolidine-2,3-dione]	> 40.3 µM
COCCN1C(=O)C(=O)C(C(=O)c2ccccc2)C1c1ccccc1OC (stereo unspecified) [(4E)-1-(2-methoxyethyl)-5-(2-methoxyphenyl)-4-[oxidanyl(phenyl)methylidene]pyrrolidine-2,3-dione]	> 40.3 µM
COc1ccc(OC)c(C2C(C(=O)c3ccccc3)C(=O)C(=O)N2c2ccc(C)c(Cl)c2)c1 (stereo unspecified) [(4E)-1-(3-chloranyl-4-methyl-phenyl)-5-(2,5-dimethoxyphenyl)-4-[oxidanyl(phenyl)methylidene]pyrrolidine-2,3-dione]	> 40.3 µM

Structure (SMILES)	Ki
COc1ccc(C2C(C(=O)c3ccccc3)C(=O)C(=O)N2c2cccc(Cl)c2)c(OC)c1 (stereo unspecified) [(4E)-1-(3-chlorophenyl)-5-(2,4-dimethoxyphenyl)-4-[hydroxy(phenyl)methylene]pyrrolidine-2,3-quinone]	> 40.3 µM
COCCCN1C(=O)C(=O)C(C(=O)c2ccccc2)C1c1ccc(C(C)C)cc1 (stereo unspecified) [(4E)-1-(3-methoxypropyl)-4-[oxidanyl(phenyl)methylidene]-5-(4-propan-2-ylphenyl)pyrrolidine-2,3-dione]	> 40.3 µM
Cc1ccc(C(=O)C2C(=O)C(=O)N(c3nnc(C)s3)C2c2ccc(C(C)C)cc2)cc1 (stereo unspecified) [(4E)-4-[(4-methylphenyl)-oxidanyl-methylidene]-1-(5-methyl-1,3,4-thiadiazol-2-yl)-5-(4-propan-2-ylphenyl)pyrrolidine-2,3-dione]	> 40.3 µM
CC(C)c1ccc(C2C(C(=O)c3ccccc3)C(=O)C(=O)N2Cc2cccnc2)cc1 (stereo unspecified) [(4E)-4-[hydroxy(phenyl)methylene]-5-p-cumenyl-1-(3-pyridylmethyl)pyrrolidine-2,3-quinone]	> 40.3 µM
COc1ccc(C2C(C(=O)c3ccccc3)C(=O)C(=O)N2CCCn2ccnc2)c(OC)c1 (stereo unspecified) [(4E)-5-(2,4-dimethoxyphenyl)-1-(3-imidazol-1-ylpropyl)-4-[oxidanyl(phenyl)methylidene]pyrrolidine-2,3-dione]	> 40.3 µM
COc1ccc(C2C(C(=O)c3ccc(C)cc3)C(=O)C(=O)N2Cc2cccnc2)c(OC)c1 (stereo unspecified) [(4E)-5-(2,4-dimethoxyphenyl)-4-[(4-methylphenyl)-oxidanyl-methylidene]-1-(pyridin-3-ylmethyl)pyrrolidine-2,3-dione]	> 40.3 µM
COCCN1C(=O)C(=O)C(C(=O)c2ccccc2)C1c1cc(OC)ccc1OC (stereo unspecified) [(4E)-5-(2,5-dimethoxyphenyl)-1-(2-methoxyethyl)-4-[oxidanyl(phenyl)methylidene]pyrrolidine-2,3-dione]	> 40.3 µM
COc1ccc(OC)c(C2C(C(=O)c3ccccc3)C(=O)C(=O)N2c2cccnc2)c1 (stereo unspecified) [(4E)-5-(2,5-dimethoxyphenyl)-4-[hydroxy(phenyl)methylene]-1-(3-pyridyl)pyrrolidine-2,3-quinone]	> 40.3 µM
COCCCN1C(=O)C(=O)C(C(=O)c2ccccc2)C1c1ccc(O)c(OC)c1 (stereo unspecified) [(4E)-5-(3-methoxy-4-oxidanyl-phenyl)-1-(3-methoxypropyl)-4-[oxidanyl(phenyl)methylidene]pyrrolidine-2,3-dione]	> 40.3 µM
O=C1C(=O)N(CN2CCOCC2)C(c2ccc(Br)cc2)C1C(=O)c1ccccc1 (stereo unspecified) [(4E)-5-(4-bromophenyl)-1-(morpholin-4-ylmethyl)-4-[oxidanyl(phenyl)methylidene]pyrrolidine-2,3-dione]	> 40.3 µM
O=C1NC(c2ccc(Br)cc2)C(C(=O)c2ccc(Cl)cc2)C1=O (stereo unspecified) [(4E)-5-(4-bromophenyl)-4-[(4-chlorophenyl)-hydroxy-methylene]pyrrolidine-2,3-quinone]	> 40.3 µM
Cc1ccc(C(=O)C2C(=O)C(=O)N(Cc3cccnc3)C2c2ccc(Br)cc2)cc1 (stereo unspecified) [(4E)-5-(4-bromophenyl)-4-[(4-methylphenyl)-oxidanyl-methylidene]-1-(pyridin-3-ylmethyl)pyrrolidine-2,3-dione]	> 40.3 µM
Cc1ccc(N2C(=O)C(=O)C(C(=O)c3ccccc3)C2c2cccc(F)c2)cc1Br (stereo unspecified) [(4Z)-1-(3-bromanyl-4-methyl-phenyl)-5-(3-fluorophenyl)-4-[oxidanyl(phenyl)methylidene]pyrrolidine-2,3-dione]	> 40.3 µM
CCCCCCN1C(=O)C(=O)C(C(=O)c2ccccc2)C1c1ccc(O)c(OC)c1 (stereo unspecified) [(4Z)-1-hexyl-5-(3-methoxy-4-oxidanyl-phenyl)-4-[oxidanyl(phenyl)methylidene]pyrrolidine-2,3-dione]	> 40.3 µM
COc1ccc(C(=O)C2C(=O)C(=O)NC2c2ccc(OC)cc2OC)cc1 (stereo unspecified) [(4Z)-5-(2,4-dimethoxyphenyl)-4-[(4-methoxyphenyl)-oxidanyl-methylidene]pyrrolidine-2,3-dione]	> 40.3 µM
CCCCCCOc1cccc(N2C(=O)C(=O)C(C(=O)c3ccccc3)C2c2cccc(F)c2)c1 (stereo unspecified) [(4Z)-5-(3-fluorophenyl)-1-(3-hexoxyphenyl)-4-[hydroxy(phenyl)methylene]pyrrolidine-2,3-quinone]	> 40.3 µM
O=C1C(=O)N(c2ccc(F)cc2)C(c2ccc(Br)cc2)C1C(=O)c1ccccc1 (stereo unspecified) [(4Z)-5-(4-bromophenyl)-1-(4-fluorophenyl)-4-[hydroxy(phenyl)methylene]pyrrolidine-2,3-quinone]	> 40.3 µM
N#Cc1c(N=C(CC(=O)c2ccccc2)C(=O)O)sc2c1CCC2 [(Z)-2-[(3-cyano-5,6-dihydro-4H-cyclopenta[b]thiophen-2-yl)amino]-4-keto-4-phenyl-but-2-enoic acid]	> 40.3 µM
